Experimental data reported in US20250213649A1, “PEPTIDE HAVING ANTI-INFLAMMATORY AND ANTI-FIBROTIC ACTIVITIES AND USE THEREOF” (CAREGEN CO., LTD., priority 2022, published 2025).

Experiments:
[1] = system: A549 cells; assay: Western blotting of LPS-induced inflammatory cytokine/signaling proteins, A549 cells; assay type: cell-based, human; conditions: LPS 5 μg/ml, peptide 10, 50, 100, 500 μM, 24 hours, Western blot (FIG. 4a, 4b)
Description: A549 cells (human alveolar basal epithelial cells) were seeded at 3×10^5 cells/well in a 6-well plate and used in the experiment. After culturing for 1 day with a culture medium containing 10% FBS, the culture medium was replaced with a culture medium without containing FBS to induce starvation for 4 hours. Cells of a normal group without being treated with any substances, a group treated with LPS (5 μg/ml) (Sigma Aldrich) (negative control group), groups treated with LPS (5 μg/ml) and the peptide of Production Example 1 (10, 50, 100, 500 μM), and a group treated with LPS (5 μg/ml) and 10 μM of Dexamethasone (DEX) (positive control group) were treated with active substances and drugs respectively and then cultured for 24 hours. The cultured cells of each treatment group and control group were lysed by adding a lysis buffer, and then centrifugation was carried out at 4° C. at 12,000 rpm for 30 minutes to obtain proteins, which were subsequently quantified using a BCA Protein Assay kit (Sigma). The proteins were subjected to SDS-PAGE (sodium dodecyl sulfate-polyacrylamide gel electrophoresis) and then subjected to electrotransfer to a membrane. The membrane to which the proteins were attached was treated with 5% skim milk for blocking and then subjected to a reaction with a primary antibody overnight at 4° C. After washing with PBS-T, the membrane was subjected to a reaction with a secondary antibody at room temperature for 1 hour, washed again with PBS-T, and then visualized by a Western detection reagent (Elpis Biotech, Daejeon, Korea) using Gel Doc (Bio-Rad, Hercules, CA, USA). The antibodies used in the experiment are as follows. An Anti-IL-1β antibody: (Cell signaling technology (CST), USA), an anti-IL-6 antibody: (Santa Cruz Biotechnology, USA), an anti-COX2 antibody: (Santa Cruz Biotechnology, USA), an anti-Phospho-PI3K antibody: (Cell signaling technology (CST), USA), an anti-Phospho-AKT antibody: (Cell signaling technology (CST), USA), an anti-Phospho-ERK antibody: (Cell signaling technology (CST), USA), and an anti-β-Actin antibody: (Santa Cruz Biotechnology, USA).

[2] = system: MRC-5 cells; assay: Inhibition of fibrosis gene expression induced by TGF-β1, RT-PCR, MRC-5 cells; assay type: cell-based; conditions: 5 ng/ml TGF-β1, peptide 10, 50, 100, 500 μM, 3 hours, RT-PCR (FIG. 7)
Description: MRC-5 cells (lung fibroblast cells) were seeded at 2×10^5 cells/well in a 12-well plate and used in the experiment. After culturing for 1 day with a culture medium containing 10% FBS, the culture medium was replaced with a culture medium without containing FBS to induce starvation for 4 hours. Cells of a normal group without being treated with any substances, a group treated with 5 ng/ml of TGF-β1 (negative control group), groups treated with 5 ng/ml of TGF-β1 and the peptide of Production Example 1 (10, 50, 100, 500 μM), and a group treated with 5 μg/ml of LPS and 10 μM of Dexamethasone (DEX) (positive control group) were treated with the above-described active substances and drugs, and then RNA was extracted after 3 hours to carry out RT-PCR. RNA was extracted from MRC-5 cells using an easy-BLUE™ Total RNA extraction kit (Qiagen, Germany). The extracted RNA was converted into cDNA using RT-PCR premix (iNtRON Biotechnology, Seongnam, Korea). After preparing a reaction mixture with PCR premix (iNtRON Biotechnology, Seongnam, Korea) and primers for each gene, PCR was carried out using a PCR machine (Eppendorf, Germany). Next, the mRNA expression pattern was determined by agarose gel electrophoresis.

[3] = system: BALB/c mice; assay: LPS-induced acute lung inflammation model, cell counts in bronchoalveolar lavage fluid; assay type: in vivo; conditions: BALB/c female mice, LPS 10 μg intranasal, peptide 0.5 mg, 1 mg intranasal 1 hour after LPS, 24 hours (FIG. 10a, 10b)
Description: BALB/c mice (Female/7W) were used in animal experiments, and an acute lung inflammation model was established by injection of LPS. As shown in [Table 5] below, 7-week-old BALB/c female mice were divided into 5 groups of 5 mice each, and then the experiment was carried out. On the 1st day, LPS (10 μg/50 μl/mouse) was administered intranasally to the G2 to G5 groups. 1 hour after LPS administration, the G3 and G4 groups were subjected to intranasal administration with the peptide of Production Example 1 (0.5 mg, 1 mg), and the G5 positive control group was subjected to intraperitoneal administration with Dexamethasone (100 μg). 24 hours after the administration of the active substance and the drug, the mice were sacrificed to obtain the bronchoalveolar lavage fluid and the lung tissue, which were used in the next analysis.
After anesthetizing the mouse, the treatment area was disinfected with 70% ethanol. […] The separated cells were resuspended in 0.5 ml of PBS, subsequently diluted with trypan blue solution at a 1:1 ratio, and then the total number of cells was counted using a hematocytometer. […] After staining, cells were observed and counted through a microscope, and then the number of immune cells with respect to the total number of cells was calculated to show the results as a graph.

**Q.** Which “expression of COX2 (protein)” value [1] does the source give for “KYLLVHRPYYRR [peptide of Production Example 1]” here?
**A.** Its value is “decreased the expression levels of proteins in a concentration-dependent manner”.

**Q.** And the “expression of IL-1β (protein)” value [1]?
**A.** Its value is “decreased the expression levels of proteins in a concentration-dependent manner”.

**Q.** What about the “expression of IL-6 (protein)” value [1] of the same sequence?
**A.** Its value is “decreased the expression levels of proteins in a concentration-dependent manner”.

**Q.** And the “expression of Phospho-AKT” value [1]?
**A.** Its value is “decreased the expression levels of proteins in a concentration-dependent manner”.

**Q.** What about the “expression of Phospho-ERK” value [1] of the same sequence?
**A.** Its value is “decreased the expression levels of proteins in a concentration-dependent manner”.

**Q.** What about the “expression of Phospho-PI3K” value [1] of the same sequence?
**A.** The value was “decreased the expression levels of proteins in a concentration-dependent manner”.

**Q.** What about the “expression of Collagen 1A1 gene” value [2] of the same sequence?
**A.** The value was “decreased the expression of genes in a concentration-dependent manner”.

**Q.** And the “expression of Fibronectin 1 gene” value [2]?
**A.** Its value is “decreased the expression of genes in a concentration-dependent manner”.

**Q.** What about the “expression of Tenascin C gene” value [2] of the same sequence?
**A.** The value was “decreased the expression of genes in a concentration-dependent manner”.

**Q.** What about the “expression of α-SMA gene” value [2] of the same sequence?
**A.** The value was “decreased the expression of genes in a concentration-dependent manner”.

**Q.** And the “number of macrophages in bronchoalveolar lavage fluid” value [3]?
**A.** Its value is “not increased or decreased”.

**Q.** What about the “number of neutrophils in bronchoalveolar lavage fluid” value [3] of the same sequence?
**A.** The value was “significantly reduced the increased number of neutrophils in a concentration-dependent manner”.
